Source: patent publication US12564590B2, “Combinations of menin inhibitors and CYP3A4 inhibitors and methods of use thereof” (Syndax Pharmaceuticals, Inc., priority 2020, dated 2026)

Legend:
[1] = test system: cells harboring MLLr fusions; test: activity in cells harboring MLLr fusions; format: cell-based
[2] = test system: leukemic xenograft models; test: leukemic xenograft / nonclinical survival models; format: in vivo; details: in combination with a CYP3A4 inhibitor; for survival benefit in nonclinical models: oral dosing
[3] = target: T1, MLL1 binding pocket on menin (Homo sapiens, UniProt O00255); test: binding to the MLL1 binding pocket on menin
T1 sequence (O00255 1-610): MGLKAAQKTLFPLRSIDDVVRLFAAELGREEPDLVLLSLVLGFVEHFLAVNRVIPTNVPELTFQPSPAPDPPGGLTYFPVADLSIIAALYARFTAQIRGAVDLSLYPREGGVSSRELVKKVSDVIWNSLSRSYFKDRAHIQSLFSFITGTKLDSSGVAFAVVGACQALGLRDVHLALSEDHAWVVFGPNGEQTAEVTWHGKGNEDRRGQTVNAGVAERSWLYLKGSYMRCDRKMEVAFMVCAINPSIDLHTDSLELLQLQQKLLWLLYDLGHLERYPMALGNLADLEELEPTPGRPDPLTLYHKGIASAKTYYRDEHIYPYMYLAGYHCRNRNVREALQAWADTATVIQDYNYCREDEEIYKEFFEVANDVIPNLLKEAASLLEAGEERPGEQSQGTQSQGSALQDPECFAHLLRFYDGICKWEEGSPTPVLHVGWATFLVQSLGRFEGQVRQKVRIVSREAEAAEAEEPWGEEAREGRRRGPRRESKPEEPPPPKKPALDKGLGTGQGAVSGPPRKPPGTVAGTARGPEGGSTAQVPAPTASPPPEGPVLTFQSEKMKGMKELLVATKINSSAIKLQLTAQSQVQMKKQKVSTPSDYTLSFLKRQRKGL

[4] = test system: NPM1c mutant AML patient-derived xenograft models; details: orally active; cited from earlier work
NPM1c cells = details: leading to growth arrest, terminal differentiation and cell death; cited from earlier work

Row | Structure (SMILES) | activity across a range of cells harboring MLLr fusions [1] | activity in multiple leukemic xenograft models [2] | survival benefit in nonclinical models [2] | binding affinity to the MLL1 binding pocket on menin [3] | anti-leukemic activity [4] | effect on HOXA MEIS1 transcription program (NPM1c cells)
1 | CC(C)N(C(=O)c1cc(F)ccc1Oc1cncnc1N1CC2(CCN(C[C@H]3CC[C@H](NS(C)(=O)=O)CC3)CC2)C1)C(C)C [Formula I, 5-fluoro-N,N-diisopropyl-2-((4-(7-(((1r,4r)-4-(methylsulfonamido)cyclohexyl)methyl)-2,7-diazaspiro[3.5]nonan-2-yl)pyrimidin-5-yl)oxy)benzamide] | displays activity | robust activity | profound survival benefit | high affinity |  | 
2 | CCN(C(=O)c1cc(F)ccc1Oc1cncnc1N1CC2(CCN(C[C@H]3CC[C@H](NS(=O)(=O)CC)CC3)CC2)C1)C(C)C [Formula II, N-ethyl-2-((4-(7-(((1r,4r)-4-(ethylsulfonamido)cyclohexyl)methyl)-2,7-diazaspiro[3.5]nonan-2-yl)pyrimidin-5-yl)oxy)-5-fluoro-N-isopropylbenzamide] | displays activity | robust activity | profound survival benefit | high affinity |  | 
3 | CNc1nc(NC2CCN(Cc3ccc4c(cc(C#N)n4C[C@H](C)N4CCN(S(C)(=O)=O)CC4)c3C)CC2)c2cc(CC(F)(F)F)sc2n1 [KO-539] |  |  |  |  | robust anti-leukemic activity | 
4 | Cc1c(CN2CCC(Nc3ncnc4sc(CC(F)(F)F)cc34)CC2)ccc2c1cc(C#N)n2Cc1cn[nH]c1 [MI-503] |  |  |  |  |  | suppress the HOXA MEIS1 transcription program
